What was measured:
cyclooxygenase-1 = biological target: T1, cyclooxygenase-1 (Mus musculus, UniProt P22437); test: Cyclooxygenase-1 inhibition in mouse peritoneal macrophages (PGE2 ELISA); assay type: cell-based; conditions: for Inhibitory effects of cyclooxygenase (COX), COX-1: mouse peritoneal macrophages
T1 construct: endogenous in cells; host or cells: primary mouse peritoneal macrophages (unstimulated)
T1 sequence (P22437 27-602): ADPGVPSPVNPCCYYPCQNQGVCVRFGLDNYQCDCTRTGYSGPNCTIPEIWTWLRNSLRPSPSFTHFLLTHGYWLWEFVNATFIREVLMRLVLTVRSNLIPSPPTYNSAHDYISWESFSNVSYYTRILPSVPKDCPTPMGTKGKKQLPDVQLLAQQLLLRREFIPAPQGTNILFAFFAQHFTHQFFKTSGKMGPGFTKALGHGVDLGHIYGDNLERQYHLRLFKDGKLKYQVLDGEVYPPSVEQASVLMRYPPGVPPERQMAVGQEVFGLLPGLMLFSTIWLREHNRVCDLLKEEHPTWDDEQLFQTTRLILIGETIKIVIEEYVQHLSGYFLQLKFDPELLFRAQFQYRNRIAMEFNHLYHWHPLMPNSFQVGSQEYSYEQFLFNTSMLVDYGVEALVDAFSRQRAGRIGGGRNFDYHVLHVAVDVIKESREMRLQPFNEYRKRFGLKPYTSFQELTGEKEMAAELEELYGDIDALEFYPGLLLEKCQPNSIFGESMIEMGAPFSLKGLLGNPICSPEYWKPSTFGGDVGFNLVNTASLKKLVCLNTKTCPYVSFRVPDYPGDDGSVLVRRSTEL
Experimental: First of all, the cyclooxygenase-1 was examined through the following procedure.
Peritoneal fluid in which macrophages were suspended was extracted from a mouse peritoneal cavity and centrifuged at 4° C., 1,000 rpm for 2 minutes. Then, the supernatant was removed, suspended with 20 ml of incomplete RPMI medium [PC/SM (penicilin/streptomycin)] and again centrifuged under the same condition. […] Then, the cell number was calculated with the hemocytometer and adjusted to reach 1×10^6 cells/ml of cell concentration in the final cell suspension. 100 μl of the resulting suspension was transferred into each well of 96-well plate and left at 37° C. in 5% CO2 with the incubator for about 2 hours in order to attach macrophages. […] The resulting cell was cultivated in the incubator at 37° C. in 5% CO2 for about 12˜16 hours. Then, arachidonic acid was added, adjusting to 10 μM of a final concentration and incubated at 37° C. for more 10 minutes and the supernatant of the reacted solution (˜180 μl) was recovered to finish the reaction.

cyclooxygenase-2 = biological target: T2, cyclooxygenase-2 (Mus musculus, UniProt Q05769); test: Cyclooxygenase-2 inhibition in aspirin-treated, LPS-stimulated mouse peritoneal macrophages (PGE2 ELISA); assay type: cell-based; conditions: for Inhibitory effects of cyclooxygenase (COX), COX-2: LPS-stimulated mouse peritoneal macrophages
T2 construct: Peritoneal fluid suspended with macrophages was extracted from a mouse peritoneal cavity; endogenous in cells; host or cells: primary mouse peritoneal macrophages, pretreated with 500 µM aspirin and stimulated with 10 µg/ml LPS
T2 sequence (Q05769 18-604): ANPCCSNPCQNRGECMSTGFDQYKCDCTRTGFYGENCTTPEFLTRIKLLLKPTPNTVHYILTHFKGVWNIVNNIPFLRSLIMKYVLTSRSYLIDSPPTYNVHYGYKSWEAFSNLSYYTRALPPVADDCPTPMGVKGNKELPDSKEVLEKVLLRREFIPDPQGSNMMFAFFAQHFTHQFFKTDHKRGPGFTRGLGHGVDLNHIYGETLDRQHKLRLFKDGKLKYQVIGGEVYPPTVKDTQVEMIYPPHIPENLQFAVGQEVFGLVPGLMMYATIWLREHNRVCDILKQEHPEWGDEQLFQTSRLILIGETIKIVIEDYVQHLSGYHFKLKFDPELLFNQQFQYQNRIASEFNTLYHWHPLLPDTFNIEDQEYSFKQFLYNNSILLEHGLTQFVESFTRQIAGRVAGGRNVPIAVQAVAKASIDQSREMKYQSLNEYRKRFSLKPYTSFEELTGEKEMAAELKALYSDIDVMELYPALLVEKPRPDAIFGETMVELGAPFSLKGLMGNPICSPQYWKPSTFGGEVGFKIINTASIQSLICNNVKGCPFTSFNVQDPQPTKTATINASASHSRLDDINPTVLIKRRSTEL
Experimental: Second, the cyclooxygenase-2 was examined through the following procedure.
Peritoneal fluid suspended with macrophages was extracted from a mouse peritoneal cavity and centrifuged at 4° C., 1,000 rpm for 2 minutes. Then, the supernatant was removed, suspended using incomplete RPMI medium [PC/SM (penicilin/streptomycin)] and again centrifuged under the same condition. […] Then, the cell number was calculated with the hemocytometer and adjusted to reach 1×10^6 cells/ml of cell concentration in the final cell suspension. The resulting suspension was treated with aspirin, adjusting 500 μM of final concentration and transderred into each well of 96-well plate in 100 μl respectively. Again, it was left at 37° C. in 5% CO2 in the incubator for about 2 hours in order to attach macrophages. […] The resulting cell was cultivated in the incubator at 37° C. in 5% CO2 for about 12˜16 hours. Then, arachidonic acid was added, adjusting to 10 μM of a final concentration and incubated at 37° C. for more 10 minutes and the supernatant of the reacted solution (˜180 μl) was recovered to finish the reaction.

[1] = compared with comparative substance

Row | SMILES | Inhibitory effects of cyclooxygenase (COX), COX-1 (cyclooxygenase-1; 3 μM) [% inhibition] | Inhibitory effects of cyclooxygenase (COX), COX-1 (cyclooxygenase-1; 10 μM) [% inhibition] | Inhibitory effects of cyclooxygenase (COX), COX-1 (cyclooxygenase-1; 30 μM) [% inhibition] | Inhibitory effects of cyclooxygenase (COX), COX-2 (cyclooxygenase-2; 30 nM) | Inhibitory effects of cyclooxygenase (COX), COX-2 (cyclooxygenase-2; 100 nM) | Inhibitory effects of cyclooxygenase (COX), COX-2 (cyclooxygenase-2; 300 nM) | inhibition effect against cyclooxygenase-1 (in words) (cyclooxygenase-1; [1]) | selectivity of cyclooxygenase-2 (in words) (cyclooxygenase-2; COX-2 versus COX-1) | inhibition effect against cyclooxygenase-2 (in words) (cyclooxygenase-2; [1])
1 | CC(C)c1ccc(Cn2ccc3cc([N+](=O)[O-])ccc32)cc1 [Example 5, 1-(4-isopropyl-benzyl)-5-nitro-1H-indole] | 39.9 | 47.1 | 54.3 | 51.2 % inhibition | 55.4 % inhibition | 61.4 % inhibition | – | – | –
2 | O=[N+]([O-])c1ccc2c(ccn2Cc2ccccc2)c1 [Example 2, 1-benzyl-5-nitro-1H-indole] | 56.7 | 68.7 | 80.4 | 15.7 % inhibition | 20.7 % inhibition | 22.0 % inhibition | – | – | –
3 | Nc1ccc2c(ccn2C(=O)c2ccccc2)c1 [Example 6, 1-benzoyl-5-amino-1H-indole] | 52.3 | 57.3 | 64.8 | 33.4 % inhibition | 46.6 % inhibition | 54.9 % inhibition | – | – | –
4 | CS(=O)(=O)Nc1ccc2c(ccn2Cc2ccccc2)c1 [Example 7, N-(1-benzyl-1H-indole-5-yl)-methanesulfonamide] | 30.0 | 44.1 | 56.4 | 59.8 % inhibition | 70.6 % inhibition | 76.8 % inhibition | in much lower level than a comparative substance | better than any other substances | more excellent than a comparative substance
5 | O=C(c1ccccc1)n1ccc2cc([N+](=O)[O-])ccc21 [Example 1, 1-benzoyl-5-nitro-1H-indole] | 33.2 | 40.7 | 45.8 | ˜0 % inhibition | ˜0 % inhibition | ˜0 % inhibition | – | – | –
6 | COc1ccc(Cn2ccc3cc([N+](=O)[O-])ccc32)cc1 [Example 4, 1-(4-methoxy-benzyl)-5-nitro-1H-indole] | 60.3 | 71.1 | 80.1 | 55.4 % inhibition | 69.9 % inhibition | 81.5 % inhibition | – | – | –
7 | CS(=O)(=O)Nc1ccc2c(ccn2C(=O)c2ccccc2)c1 [Example 9, N-(1-benzoyl-1H-indole-5-yl)-methanesulfonamide] | 22.8 | 31.1 | 42.1 | 20.4 % inhibition | 25.5 % inhibition | 30.1 % inhibition | – | – | –
8 | O=[N+]([O-])c1ccc2c(ccn2Cc2ccc(F)cc2)c1 [Example 3, 1-(4-fluoro-benzyl)-5-nitro-1H-indole] | 60.4 | 64.4 | 74.6 | 50.1 % inhibition | 58.8 % inhibition | 70.2 % inhibition | – | – | –
9 | CS(=O)(=O)Nc1ccc2c(ccn2Cc2ccc(F)cc2)c1 [Example 8, N-[1-(4-fluoro-benzyl)-1H-indole-5-yl]-methansulfonamide] | 7.6 | 32.3 | 53.9 | 22.1 % inhibition | 28.6 % inhibition | 29.6 % inhibition | – | – | –
